Experimental data as given in ChEMBL document CHEMBL1127154, “Azido-functionalized thiourea analogues acting as efficient photoaffinity probes for the urea channel” (1993).

Key:
[1] = Compound was tested for its ability to inhibit the urea facilitated transport in the urinary bladder of female frog, activity expressed as percent inhibition.; type: functional
frog [2] = experiment: Concentration in urinary bladder of female frog.; type: functional, tissue-based
[3] = Compound was tested for its ability to inhibit the urea facilitated transport in the urinary bladder of female frog after illumination, activity expressed as irreversibility of illumination.; type: functional
frog [4] = experiment: Concentration in urinary bladder of female frog; very low solubility; type: functional, tissue-based

## [N-]=[N+]=Nc1cc(/N=C(/N)S)ccc1Cl
[1]
  Inhibition: 50%
Frog [2]
  Concentration: 60.3 µM
[3]
  Irreversibility: 100%

## [N-]=[N+]=Nc1ccc(/N=C(/N)S)cc1
[1]
  Inhibition: 25%
Frog [2]
  Concentration: 500 µM
[3]
  Irreversibility: 100%

## [N-]=[N+]=Nc1ccc(NC(=S)Nc2ccc(Cl)c(Cl)c2)cc1
Frog [4]
  Concentration: very low solubility

## C/N=C(\S)Nc1nc2cc(N=[N+]=[N-])ccc2[nH]1
[1]
  Inhibition: 29%
Frog [2]
  Concentration: 500 µM
[3]
  Irreversibility: 100%

## C/N=C(\S)Nc1ccc(Cl)c(N=[N+]=[N-])c1
[1]
  Inhibition: 50%
Frog [2]
  Concentration: 31.6 µM
[3]
  Irreversibility: 100%
